{"source": "patent US4268630A", "about": "“Microbiological production of ketones from C3 -C6 alkanes” (priority 1979, dated 1981)", "key": {"[1]": {"system": "cell-free secondary alcohol dehydrogenase (SADH) system", "experiment": "Cofactor requirement of cell-free soluble extracts oxidizing 2-butanol", "assay_type": "biochemical", "procedure": "To prepare the cell-free secondary alcohol dehydrogenase (SADH) system, the washed cells were disrupted with a Wave Energy Ultrasonic Oscillator, Model W201 (Wave Energy System, Inc., Newtown, Pa.) and centrifuged at 20,000× g. for 30 minutes. […] The enzyme activity was measured with a fluorescence spectrophotometer (Perkin Elmer, Model MPF 44A) by following the formation of reduced NAD (EX 340 nm, Em 460 nm). The formation of reduced NAD was also followed with an absorption spectrophotometer at 340 nm. The assay system (3 ml.) contained: potassium phosphate buffer pH 7.0; 150 μmol.; NAD 1 μmol.; a given amount of enzyme preparation; and secondary alcohol 10 μmol. The reaction was started by the addition of substrate. One unit of enzyme activity represents the reduction of one μmole NAD per minute. Protein concentrations were determined by the Lowry method (J. Biol. Chem., 193: 255-275 (1951))."}, "[2]": {"system": "secondary alcohol dehydrogenase", "experiment": "Activity of purified yeast-derived secondary alcohol dehydrogenase", "assay_type": "biochemical, Pichia sp. NRRL Y-11,328", "conditions": "for ability to act as electron acceptor/carrier: purified enzyme"}, "[3]": {"system": "Methylosinus trichosporium OB3b (NRRL B-11,196)", "experiment": "Oxidation of n-alkanes to methyl ketones by resting cell suspension", "assay_type": "cell-based", "conditions": "cell suspension grown on methane", "procedure": "(§1) The pH of the nutrient medium was adjusted to 7.0 by the addition of acid or base and 50 ml. samples of the nutrient medium were charged into a plurality of 300 ml. shaker flasks. […] The isolates had been maintained on methanol (0.4% V/V) agar plates or on agar plates under an atmosphere of methane and air having a 1:1 V/V gas ratio which had been transferred every two weeks. For growth on methanol, the medium was supplemented with 0.4% methanol. For growth on methane, the gaseous phase of the inoculated flasks was replaced with a gas mixture comprised on methane and air having a ratio of 1:1 on a V/V basis. The inoculated flasks were sealed air-tight and were incubated on a rotary shaker of orbital radius 2.5 cm. at 250 rpm and at 30° C. for two days until turbidity in the medium had developed. The cells were harvested by centrifugation at 10,000×g. at 4° C. for 30 minutes. The cell pellet was washed twice with a 0.05 M phosphate buffer at a pH of 7.0 (containing 0.02 M MgCl2). The washed cells were then suspended in a 0.05 M phosphate buffer at pH 7.0.\n(§2) A 0.5 ml. sample of each washed cell suspension (2 mg. cells) was put into 10 ml. vials at 4° C. which were sealed with a rubber cap. The gaseous phase of the vials was removed with vacuum and then was replaced with a gas mixture of the substrate reactant (i.e., alkane or secondary alcohol) and oxygen at a 1:1 V/V ratio. (In the case of a liquid substrate, i.e., secondary alcohol, 10 μl of the substrate was put in the 10 ml. vials). The vials were then incubated at 30° C. on a rotary shaker at 300 rpm. Samples of product (1-3 μl) were withdrawn periodically with a microsyringe and the products were analyzed by gas chromatography (ionization flame detector column)."}, "[4]": {"system": "Methylobacter capsulatus Y (NRRL B-11,201)", "experiment": "Oxidation of n-alkanes to methyl ketones by resting cell suspension", "assay_type": "cell-based", "conditions": "cell suspension grown on methane", "procedure": "as §1, §2"}, "[5]": {"system": "Methylobacterium organophilum XX", "experiment": "Oxidation of n-alkanes to methyl ketones by resting cell suspension", "assay_type": "cell-based", "conditions": "cell suspension grown on methane", "procedure": "as §1, §2"}, "[6]": {"system": "Methylomonas methanica SI (NRRL B-11,199)", "experiment": "Oxidation of n-alkanes to methyl ketones by resting cell suspension", "assay_type": "cell-based", "conditions": "cell suspension grown on methane", "procedure": "as §1, §2"}, "[7]": {"system": "Methylocystis parvus OBBP (NRRL B-11,198)", "experiment": "Oxidation of n-alkanes to methyl ketones by resting cell suspension", "assay_type": "cell-based", "conditions": "cell suspension grown on methane", "procedure": "as §1, §2"}, "[8]": {"system": "Methylococcus capsulatus (Texas, ATCC 19,069)", "experiment": "Conversion of n-alkanes to secondary alcohols by cell suspensions", "assay_type": "cell-based", "conditions": "growth substrate Methane", "text": "(§3) Both cell suspensions (particulate fraction) and cell-free particulate fraction of methane-grown methylotroph microorganisms are capable of catalyzing the conversion of C3 -C6 n-alkanes to the corresponding alcohols including secondary alcohols. The conditions for preparing the cell suspensions or the cell-free particulate fractions from methane-grown methylotroph microorganisms is the same as described above. The cell-free particulate fraction requires the presence of oxygen and NADH as an electron donor. […] Tables XVI and XVII show the conversion of C3 -C6 n-alkanes to the corresponding secondary alcohols using cell suspensions and cell-free particulate fractions, respectively, of methane-grown methylotroph microorganisms."}, "[9]": {"system": "Methylobacterium sp. (CRL-26, NRRL-B-11,208)", "experiment": "Conversion of n-alkanes to secondary alcohols by cell suspensions", "assay_type": "cell-based", "conditions": "growth substrate Methane", "text": "as §3"}, "[10]": {"system": "Methylosinus trichosporium (OB3b, NRRL-B-11,196)", "experiment": "Conversion of n-alkanes to secondary alcohols by cell suspensions", "assay_type": "cell-based", "conditions": "growth substrate Methane", "text": "as §3"}, "[11]": {"system": "Methylococcus capsulatus Texas (ATCC 19069)", "experiment": "Oxidation of n-alkanes to methyl ketones by resting cell suspension", "assay_type": "cell-based", "conditions": "cell suspension grown on methane", "procedure": "The pH of the nutrient medium was adjusted to 7.0 by the addition of acid or base and 50 ml. samples of the nutrient medium were charged into a plurality of 300 ml. shaker flasks. The shaker flasks were inoculated with an inoculating loop of cells from an agar plate containing homogeneous colonies of the microorganisms on the plate (the purity of the isolates was confirmed by microscopic examination). The isolates had been maintained on methanol (0.4% V/V) agar plates or on agar plates under an atmosphere of methane and air having a 1:1 V/V gas ratio which had been transferred every two weeks. For growth on methanol, the medium was supplemented with 0.4% methanol. For growth on methane, the gaseous phase of the inoculated flasks was replaced with a gas mixture comprised on methane and air having a ratio of 1:1 on a V/V basis. The inoculated flasks were sealed air-tight and were incubated on a rotary shaker of orbital radius 2.5 cm. at 250 rpm and at 30° C. for two days until turbidity in the medium had developed. The cells were harvested by centrifugation at 10,000×g. at 4° C. for 30 minutes. The cell pellet was washed twice with a 0.05 M phosphate buffer at a pH of 7.0 (containing 0.02 M MgCl2). The washed cells were then suspended in a 0.05 M phosphate buffer at pH 7.0.\nas §2, with “The vials were then incubated at 30° C. on a rotary shaker at 300 rpm.” left out"}}, "data": [{"compound": "N[C@@H](CCC(=O)N[C@@H](CS)C(=O)NCC(=O)O)C(=O)O", "note": "[GSH, glutathione, reference compound]", "values": [{"measurement": "effectiveness as cofactor for oxidation of 2-butanol", "setting": "[1]", "result": "not effective"}, {"measurement": "inhibition of secondary alcohol dehydrogenase activity (in words)", "setting": "[2]; primary alcohols tested at 10^-3 M", "result": "strongly inhibited"}]}, {"compound": "O=C1C(Cl)=CC(=Nc2ccc(O)cc2)C=C1Cl", "note": "[dichlorophenol iodophenol, 2,6-dichlorophenol indophenol, reference compound]", "values": [{"measurement": "effectiveness as cofactor for oxidation of 2-butanol", "setting": "[1]", "result": "not effective"}, {"measurement": "ability to act as electron acceptor/carrier", "setting": "[2]", "result": "could not act as electron carrier"}]}, {"compound": "NC(=O)c1ccc[n+]([C@@H]2O[C@H](COP(=O)([O-])OP(=O)(O)OC[C@H]3O[C@@H](n4cnc5c(N)ncnc54)[C@H](OP(=O)(O)O)[C@@H]3O)[C@@H](O)[C@H]2O)c1", "note": "[NADP, reference compound]", "values": [{"measurement": "effectiveness as cofactor for oxidation of 2-butanol", "setting": "[1]", "result": "not effective"}, {"measurement": "ability to act as electron acceptor/carrier", "setting": "[2]", "result": "could not act as electron carrier"}]}, {"compound": "C[n+]1c2ccccc2nc2ccccc21", "note": "[phenazine methosulfate, reference compound]", "values": [{"measurement": "effectiveness as cofactor for oxidation of 2-butanol", "setting": "[1]", "result": "not effective"}, {"measurement": "ability to act as electron acceptor/carrier", "setting": "[2]", "result": "could not act as electron carrier"}]}, {"compound": "CCCCC", "note": "[n-Pentane, n-pentane]", "values": [{"measurement": "Conversion Rates, n-alkane to methyl ketone", "setting": "[3]", "result": 0.72, "unit": "μmoles/hr/mg protein"}, {"measurement": "Conversion Rates, n-alkane to methyl ketone", "setting": "[4]", "result": 0.63, "unit": "μmoles/hr/mg protein"}, {"measurement": "Conversion Rates, n-alkane to methyl ketone", "setting": "[5]", "result": 0.58, "unit": "μmoles/hr/mg protein"}, {"measurement": "Conversion Rates, n-alkane to methyl ketone", "setting": "[6]", "result": 0.28, "unit": "μmoles/hr/mg protein"}, {"measurement": "Conversion Rates, n-alkane to methyl ketone", "setting": "[7]", "result": 0.51, "unit": "μmoles/hr/mg protein"}, {"measurement": "Conversion Rate, n-alkane to secondary alcohol", "setting": "[8]", "result": 0.032, "unit": "μmoles/hr/^5 mg. protein"}, {"measurement": "Conversion Rate, n-alkane to secondary alcohol", "setting": "[9]", "result": 0.01, "unit": "μmoles/hr/^5 mg. protein"}, {"measurement": "Conversion Rate, n-alkane to secondary alcohol", "setting": "[10]", "result": 0.06, "unit": "μmoles/hr/^5 mg. protein"}, {"measurement": "Conversion Rates, n-alkane to methyl ketone", "setting": "[11]", "result": 0.42, "unit": "μmoles/hr/mg protein"}]}, {"compound": "Cc1cc2nc3c(=O)[nH]c(=O)nc-3n(C[C@H](O)[C@H](O)[C@H](O)COP(=O)(O)OP(=O)(O)OC[C@H]3O[C@@H](n4cnc5c(N)ncnc54)[C@H](O)[C@@H]3O)c2cc1C", "note": "[FAD, flavin adenine dinucleotide, reference compound]", "values": [{"measurement": "effectiveness as cofactor for oxidation of 2-butanol", "setting": "[1]", "result": "not effective"}, {"measurement": "ability to act as electron acceptor/carrier", "setting": "[2]", "result": "could not act as electron carrier"}]}, {"compound": "NC(=O)C1=CN([C@@H]2O[C@H](COP(=O)(O)OP(=O)(O)OC[C@H]3O[C@@H](n4cnc5c(N)ncnc54)[C@H](OP(=O)(O)O)[C@@H]3O)[C@@H](O)[C@H]2O)C=CC1", "note": "[NAD(P)H]", "values": [{"measurement": "effectiveness as cofactor for oxidation of 2-butanol", "setting": "[1]", "result": "not effective"}]}, {"compound": "CCCCCC", "note": "[n-Hexane, n-hexane]", "values": [{"measurement": "Conversion Rates, n-alkane to methyl ketone", "setting": "[3]", "result": 0.05, "unit": "μmoles/hr/mg protein"}, {"measurement": "Conversion Rates, n-alkane to methyl ketone", "setting": "[4]", "result": 0.07, "unit": "μmoles/hr/mg protein"}, {"measurement": "Conversion Rates, n-alkane to methyl ketone", "setting": "[5]", "result": 0.09, "unit": "μmoles/hr/mg protein"}, {"measurement": "Conversion Rates, n-alkane to methyl ketone", "setting": "[6]", "result": 0.02, "unit": "μmoles/hr/mg protein"}, {"measurement": "Conversion Rates, n-alkane to methyl ketone", "setting": "[7]", "result": 0.04, "unit": "μmoles/hr/mg protein"}, {"measurement": "Conversion Rate, n-alkane to secondary alcohol", "setting": "[8]", "result": 0.01, "unit": "μmoles/hr/^5 mg. protein"}, {"measurement": "Conversion Rate, n-alkane to secondary alcohol", "setting": "[9]", "result": 0.007, "unit": "μmoles/hr/^5 mg. protein"}, {"measurement": "Conversion Rate, n-alkane to secondary alcohol", "setting": "[10]", "result": 0.01, "unit": "μmoles/hr/^5 mg. protein"}, {"measurement": "Conversion Rates, n-alkane to methyl ketone", "setting": "[11]", "result": 0.09, "unit": "μmoles/hr/mg protein"}]}]}
